Like-named read-outs stand apart in the source and are kept apart here. Non-standard residues stand in square brackets, D forms with d. Residues, ends and D or L forms follow the SMILES beside them. Sta = CC(C)C[C@H](N)[C@@H](O)CC(=O)O; N(iPr)Gly = CC(C)NCC(=O)O
Columns and labels:
Format in all cases: biochemical
[1] = target: T1, Human liver cathepsin D (Homo sapiens, UniProt P07339); assay: Assay 2: cathepsin D inhibition activity (non-cellular fluorometric assay); parameters: Human liver cathepsin D (Athens Research and Technology, Athens, GA); purchased Athens Research and Technology, Athens, GA
Method: (§1) A second non-cellular assay for determining in vitro aspartyl protease inhibitory activity utilizes a microtiter plate, where a suitable aspartyl protease, such as cathepsin D is added to each well together with controls. A suitable fluorometric substrate is added to each well. The resultant reaction mixture is allowed to react for a preselected time, e.g., 30 minutes. After enzyme activity is terminated, the substrate or its product may be determined fluorometrically and then the protease inhibition activity may be calculated based on the rates of substrate turnover. This assay is exemplified in Assay 2, below.
(§2) A fluorometric assay was adapted from the method disclosed by Murakami et al., (1981) Anal. Biochem. 110:232-239 for measuring renin activity. Human liver cathepsin D (Athens Research and Technology, Athens, GA) was diluted in assay buffer, 200mM NaOAc, pH 4.5, 150mM NaCl to 500 ng/mL and then 100 µL of this cathepsin D solution was added to each well of a 96 well plate with the exception of control wells which received just 100 µL of assay buffer. Compound stocks were prepared by dissolving an aspartyl protease inhibitor in DMSO for each concentration tested in the assay and then 5 µL of compound stock was added to each of the wells prepared above. Blank and enzyme control wells each received 5 µL of the DMSO vehicle.
(§3) Following a ten minute incubation at 25°C to allow enzyme/compound interaction, 5 µL of 500µM fluorometric substrate (Suc-Arg-Pro-Phe-His-Leu-Leu-Val-Try-AMC [SEQ ID NO:4], Bachem Biosciences, Philadelphia, PA) in DMSO was added per well to initiate the reaction. After incubation at 37°C for 30 minutes, cathepsin D activity was terminated by the addition of 100 µL per well of 400 mU/mL microsomal leucine aminopeptidase (EC 3.4.11.2, Sigma, St. Louis, MO) in 1M Tris-HCl, pH 8.0.
(§4) The plates were then analyzed in a fluorometer (CytoFluor 2350, Millipore, Bedford, MA) with an excitation wavelength of 360nm and an emission wavelength of 460nm, in order to check for background fluorescence due to test compounds. Following a two hour incubation at 37°C, to allow the aminopeptidase to release the fluorophore, 7-amido-4-methylcoumarin (AMC) from the products of cathepsin D cleavage, the plates were again analyzed in the fluorometer. In order to check for potential false positives, i.e., inhibitors of microsomal leucine aminopeptidase, residual aminopeptidase activity was monitored directly in each well by the addition of 20 µL/well of 2.5mM Leu-pNA (Bachem Biosciences, Philadelphia, PA) in 10% DMSO. Aminopeptidase activity was measured as an increase in the absorbance at 405nm in a UVmax microplate reader (Molecular Devices, Menlo Park, CA).
(§5) The compounds prepared in Examples 9, 12, 13, 20-23, 23A, 24, 30, 41-43, 45, and 48 were assayed at 10 µg/mL for cathepsin D inhibition activity using Assay 2. Cathepsin D activity was linear under these conditions and the results are expressed as percent inhibition of the control activity in Assay Table 2, below. All results presented are the mean and standard deviation of at least four replicate assays. Assay Table 2
Target sequence in this assay (P07339 169-412 limits assumed): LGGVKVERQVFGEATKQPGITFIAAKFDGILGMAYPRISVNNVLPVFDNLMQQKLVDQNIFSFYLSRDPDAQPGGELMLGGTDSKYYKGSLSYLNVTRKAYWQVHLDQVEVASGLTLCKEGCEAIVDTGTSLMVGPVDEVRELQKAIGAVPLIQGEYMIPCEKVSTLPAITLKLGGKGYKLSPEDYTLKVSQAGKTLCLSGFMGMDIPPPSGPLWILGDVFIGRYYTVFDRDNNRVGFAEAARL
Target sequence in this assay (P07339 65-162 limits assumed): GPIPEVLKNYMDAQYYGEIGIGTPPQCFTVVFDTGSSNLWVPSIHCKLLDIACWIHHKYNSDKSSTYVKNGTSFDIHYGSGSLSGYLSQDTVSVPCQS

[2] = target: T1, Human liver cathepsin D; assay: as above; parameters: Human liver cathepsin D (Athens Research and Technology, Athens, GA); purchased Athens Research and Technology, Athens, GA; host or cells: human liver (by the product's printed name)
Method: as §1, §2, §3, §4, §5
Target sequence in this assay (P07339 65-412): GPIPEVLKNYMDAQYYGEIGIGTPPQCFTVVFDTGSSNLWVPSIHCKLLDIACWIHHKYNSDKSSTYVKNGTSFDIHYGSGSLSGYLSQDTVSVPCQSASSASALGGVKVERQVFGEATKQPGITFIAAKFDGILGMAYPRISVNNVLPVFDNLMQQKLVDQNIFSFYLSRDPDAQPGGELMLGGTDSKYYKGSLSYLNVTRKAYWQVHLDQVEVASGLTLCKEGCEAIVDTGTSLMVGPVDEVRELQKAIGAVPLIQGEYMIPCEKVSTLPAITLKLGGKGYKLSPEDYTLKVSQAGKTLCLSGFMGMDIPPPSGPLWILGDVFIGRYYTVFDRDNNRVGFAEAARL

[3] = target: T2, Human brain cathepsin D (Homo sapiens, UniProt P07339); assay: Assay 1: cathepsin D inhibition activity (non-cellular assay, porcine renin tetradecapeptide substrate, RP-HPLC); details: purified human brain cathepsin D, pH 4.5, 44 µM porcine renin tetradecapeptide, 37°C
T2 construct: Human brain cathepsin D was purified from frozen post-mortem cortex; from tissue; host or cells: human post-mortem brain cortex
T2 sequence (P07339 65-412): as above
Method: An example of a non-cellular assay that may be used to determine in vitro aspartyl protease inhibitory activity reacts partially purified human brain cathepsin D with a substrate, e.g., porcine renin tetradecapeptide. The resultant reaction mixture is divided into portions and each portion is incubated for a different period of time. After the reaction is stopped, the turnover of substrate in each portion is determined using reverse-phase HPLC. Protease inhibition activity may be calculated based on the rates of substrate turnover. This assay is exemplified in Assay 1, below. Human brain cathepsin D was purified from frozen post-mortem cortex substantially in accordance with the method of Nixon and Morotta, (1984) J. Neurochem. 43:507-516. The cortex material was prepared and applied to a DEAE-Sepharose® column. The flow through fraction was dialyzed against 50mM Tris-HCl, pH 7.5, and applied to concanavalin A Sepharose® and eluted with 50mM Tris, pH 7.5, 0.5M methyl α-D-mannopyranoside. The eluted cathepsin D activity was dialyzed against 25mM Tris, pH 7.5, and stored at -40°C (Con A pool) until use. For each assay, 50 μL of the Con A pool was diluted to 270 μL in 200mM sodium citrate, pH 4.5, 150mM sodium chloride (NaCl), and incubated for 10 minutes at 4°C with 15 μL of compound stock diluted in dimethylsulfoxide (DMSO). The substrate, porcine renin tetradecapeptide ([…] [SEQ ID NO:3], Bachem Bioscience, Inc., Philadelphia, PA), was added to each reaction mixture to yield a final concentration of 44 μM in a total volume of 300 μL. The samples were incubated at 37°C for 0, 10, 20, or 30 minutes, and then boiled for 5 minutes to stop the reaction. The samples were centrifuged in a microcentrifuge for 10 minutes at 14,000 rpm at 4°C. After centrifugation, 200 μL of each reaction was injected onto […] column (Vydac, Hesperia, CA) with a Perkin Elmer ISS 100 autosampler and eluted with a gradient eluent of 0-50% CH3CN in 0.1% CF3CO2H at 2 mL/min. Peptide product peaks were monitored at 220nm with a Perkin Elmer LC 95 detector and integrated with Rainin Dynamax software in order to quantitate activity.

[4] = compound at 10 µg/mL, percent inhibition of control activity, mean and standard deviation of at least four replicate assays

SMILES | inhibition at 10 µg/mL [2] | IC50 [3] | further results
Cc1ccc(C(=O)C2NCCc3ccccc32)cc1C(=O)N[C@@H](Cc1ccccc1)[C@H](O)CN1C[C@H]2CCCC[C@H]2C[C@H]1C(=O)NC(C)(C)C (relative stereo) [Example 30, [3S-(3R*,4aR*,8aR*,2'S*,3'R*)]-2-[2'-Hydroxy-3'-phenylmethyl-4'-aza-5'-oxo-5'-(3''-[1''',2''',3''',4'''-tetrahydroisoquinolin-1'''-ylcarbonyl]-6''-methyl)phenyl]pentyl-decahydroisoquinoline-3-N-t-butylcarboxamide] |  |  | Cathepsin D Inhibition [1, 4]: 69.2 ± 3.5%
Cc1cccc2ccc(C(=O)N[C@@H](CC(N)=O)C(=O)N[C@@H](Cc3ccccc3)[C@H](O)Cc3ccccc3C(=O)NC(C)(C)C)nc12 [Example 9, [1S-(1R*,4R*,5S*)]-N-(1-(2-Amino-2-oxoethyl)-2-oxo-3-aza-4-phenylmethyl-5-hydroxy-6-(2-(1-t-butylamino-1-oxomethyl)phenyl)hexyl)-8-methylquinolin-2-yl carboxamide] |  |  | inhibition at 10 µg/mL [1]: 44.4 ± 1.9%
CC(C)C(NC(=O)C(Cc1cccc2ccccc12)NC(=O)OC(C)(C)C)C(=O)NC(Cc1ccccc1)C(O)Cc1ccccc1C(=O)NC(C)(C)C (stereo not drawn) [Example 23, [2R-(2R*,3S*,6S*,9S*)]-N-t-Butyl-2-[2-hydroxy-3-phenylmethyl-4,7-diaza-5,8-dioxo-6-(1-methylethyl)-9-N(t-butoxycarbonyl)amino-10-naphth-1-yl]decyl benzamide] |  |  | inhibition at 10 µg/mL [1, 4]: 96.3 ± 0.9%
CC(C)C(NC(=O)C(Cc1cccc2ccccc12)NC(=O)OC(C)(C)C)C(=O)NC(Cc1ccccc1)C(O)Cc1ccccc1C(=O)NC(C)(C)C (stereo not drawn) [Example 24, [2R-(2R*,3S*,6S*,9R*)]-N-t-Butyl-2-[2-hydroxy-3-phenylmethyl-4,7-diaza-5,8-dioxo-6-(1-methylethyl)-9-N(t-butoxycarbonyl)amino-10-naphth-1-yl]decyl benzamide] |  |  | Cathepsin D Inhibition [1, 4]: 92.7 ± 0.5%
CC(=O)NCC(=O)N[C@H](C(=O)N[C@H](C(=O)N[C@@H](CC(C)C)[C@@H](O)CC(=O)N[C@@H](C)C(=O)N[C@H](C(=O)O)[C@@H](C)O)C(C)C)C(C)C [Example 41, CH3C(O)-Gly-Val-Val-Sta-Ala-Thr-OH] (Ac-GVV[Sta]AT-OH) | 98.3 ± 0.1% | 4 nM | 
CC(C)C[C@H](NC(=O)[C@@H](NC(=O)[C@@H](NC(=O)CNC(C)C)C(C)C)C(C)C)[C@@H](O)CC(=O)N[C@@H](C)C(=O)N[C@H](C(=O)O)[C@@H](C)O [Example 42, (CH3)2CH-Gly-Val-Val-Sta-Ala-Thr-OH] (H-[N(iPr)Gly]VV[Sta]AT-OH) | 89.5 ± 1.3% | 8 nM | 
CC(C)C[C@H](NC(=O)[C@@H](NC(=O)[C@@H](NC(=O)CN)C(C)C)C(C)C)[C@@H](O)CC(=O)N[C@@H](C)C(=O)N[C@H](C(=O)O)[C@@H](C)O [Example 43, Gly-Val-Val-Sta-Ala-Thr-OH] (H-GVV[Sta]AT-OH) | 87.9 ± 2.4% | 53 nM | 
CC(C)C[C@H](NC(=O)[C@@H](NC(=O)CN)C(C)C)[C@@H](O)CC(=O)N[C@@H](C)C(=O)N[C@H](C(=O)O)[C@@H](C)O [Example 45, Gly-Val-Sta-Ala-Thr-OH] (H-GV[Sta]AT-OH) | 30.6 ± 4.8% | > 250 nM | 
CC[C@H](C)[C@H](NC(=O)C[C@H](O)[C@H](CC(C)C)NC(=O)[C@@H](NC(=O)CNC(C)C)C(C)C)C(=O)N[C@@H](C)C(=O)N[C@H](C(=O)O)[C@@H](C)O [Example 48, (CH3)2CH-Gly-Val-Sta-Ile-Ala-Thr-OH] (H-[N(iPr)Gly]V[Sta]IAT-OH) | 79.9 ± 2.7% | > 250 nM | 

From patent publication EP0652009A1, “Identification and use of protease inhibitors” (ELI LILLY AND COMPANY, priority 1993, dated 1995)
